# Experimental data as given in ChEMBL document CHEMBL4823295, “Design, synthesis and preliminary bioactivity evaluation of bitopic benzopyranomorpholine analogues as selective dopamine D3 receptor ligands as anti-drug addiction therapeutic agents” (Bioorg Med Chem Lett, 2021).
# Active and inactive are the calls of the source. No cut-off for these calls is given here.
# Target: D(3) dopamine receptor (Homo sapiens, UniProt P35462)
# Assay: Displacement of [3H]spiperone from human D3 receptor transfected in HEK293 cell membrane measured after 50 mins by competitive radioligand binding analysis
# Type: cell membranes
# Conditions: not given
# Chain of D(3) dopamine receptor (P35462 whole entry): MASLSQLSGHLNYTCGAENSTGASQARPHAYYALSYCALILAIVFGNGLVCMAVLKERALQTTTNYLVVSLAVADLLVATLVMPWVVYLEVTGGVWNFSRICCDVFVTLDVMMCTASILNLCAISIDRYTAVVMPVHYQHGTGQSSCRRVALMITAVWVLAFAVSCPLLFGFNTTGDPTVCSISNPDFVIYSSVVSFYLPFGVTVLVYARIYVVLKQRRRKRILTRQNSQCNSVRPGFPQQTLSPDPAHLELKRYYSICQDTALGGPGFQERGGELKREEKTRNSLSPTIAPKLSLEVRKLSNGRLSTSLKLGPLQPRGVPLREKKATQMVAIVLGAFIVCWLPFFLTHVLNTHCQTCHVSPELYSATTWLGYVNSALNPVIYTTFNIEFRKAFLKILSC
row,SMILES,Ki
1,COc1ccc2c(c1)[C@H]1OCCN(CCCCNC(=O)c3cccc4ccccc34)[C@@H]1CO2 (racemic),0.0198 µM
2,COc1ccc2c(c1)[C@H]1OCCN(CCCCNC(=O)c3cc4ccccc4[nH]3)[C@@H]1CO2 (racemic),0.00097 µM
3,O=C(NCCCCN1CCO[C@@H]2c3ccccc3OC[C@@H]21)c1ccc(-c2ccccc2)cc1 (racemic),> 1 µM
4,O=C(NCCCCN1CCO[C@@H]2c3ccccc3OC[C@H]21)c1cc2ccccc2[nH]1 (racemic),0.0105 µM
5,COc1ccc(C(=O)NCCCCN2CCO[C@@H]3c4cc(OC)ccc4OC[C@H]32)cc1 (racemic),0.00108 µM
6,O=C(NCCCCN1CCO[C@@H]2c3ccccc3OC[C@H]21)C1CCCCC1 (racemic),0.0638 µM
7,CCCN1CCO[C@@H]2c3cc(O)ccc3OC[C@H]21,0.00182 µM
8,COc1ccc2c(c1)[C@H]1OCCN(CCCCNC(=O)c3ccc4ccccc4c3)[C@@H]1CO2 (racemic),0.0199 µM
9,O=C(NCCCCN1CCO[C@@H]2c3ccccc3OC[C@H]21)c1cccc(Cl)c1 (racemic),0.0236 µM
10,O=C(NCCCCN1CCO[C@@H]2c3ccccc3OC[C@H]21)c1cccc2ccccc12 (racemic),0.0158 µM
11,COc1ccc2c(c1)[C@H]1OCCN(CCCCNC(=O)c3cccs3)[C@@H]1CO2 (racemic),0.00658 µM
12,O=C(NCCCCN1CCO[C@@H]2c3ccccc3OC[C@H]21)c1ccc(Br)cc1 (racemic),0.0135 µM
13,COc1ccc2c(c1)[C@H]1OCCN(CCCCNC(=O)c3cccc(Cl)c3)[C@@H]1CO2 (racemic),0.0266 µM
14,COc1cc(C(=O)NCCCCN2CCO[C@@H]3c4ccccc4OC[C@H]32)cc(OC)c1OC (racemic),0.0068 µM
15,COc1ccc2c(c1)[C@H]1OCCN(CCCCNC(=O)c3ccc([N+](=O)[O-])cc3)[C@@H]1CO2 (racemic),0.0139 µM
16,COc1ccc2c(c1)[C@H]1OCCN(CCCCNC(=O)c3cccnc3)[C@@H]1CO2 (racemic),0.00916 µM
17,O=C(NCCCCN1CCO[C@@H]2c3ccccc3OC[C@@H]21)c1ccc(Cl)cc1 (racemic),> 1 µM

# Test system: Mus musculus
# Assay: Anti-addiction activity in naloxone-induced withdrawal symptoms in morphine-dependent mouse model assessed as reduction in diarrhea frequency at 50 mg/kg, ip administered 60 mins prior to naloxone injection and measured for 30 mins after naloxone injection
# Type: functional, organism-based
# Conditions: time 90.0 min
row,SMILES,Activity
1,O=C(NCCCCN1CCO[C@@H]2c3ccccc3OC[C@H]21)c1cccc(Cl)c1 (racemic),Active
2,O=C(NCCCCN1CCO[C@@H]2c3ccccc3OC[C@@H]21)c1ccc(Cl)cc1 (racemic),Active

# Species on record: Homo sapiens
# Assay: Selectivity ratio of Ki for human D2 receptor transfected in HEK293 cell membrane to Ki for human D3 receptor transfected in HEK293 cell membrane
# Type: cell-based
# Conditions: not given
row,SMILES,Ratio Ki
1,COc1ccc2c(c1)[C@H]1OCCN(CCCCNC(=O)c3cccc4ccccc34)[C@@H]1CO2 (racemic),43
2,COc1ccc2c(c1)[C@H]1OCCN(CCCCNC(=O)c3cc4ccccc4[nH]3)[C@@H]1CO2 (racemic),755
3,O=C(NCCCCN1CCO[C@@H]2c3ccccc3OC[C@H]21)c1cc2ccccc2[nH]1 (racemic),75
4,COc1ccc(C(=O)NCCCCN2CCO[C@@H]3c4cc(OC)ccc4OC[C@H]32)cc1 (racemic),645
5,O=C(NCCCCN1CCO[C@@H]2c3ccccc3OC[C@H]21)C1CCCCC1 (racemic),11
6,CCCN1CCO[C@@H]2c3cc(O)ccc3OC[C@H]21,23
7,COc1ccc2c(c1)[C@H]1OCCN(CCCCNC(=O)c3ccc4ccccc4c3)[C@@H]1CO2 (racemic),32
8,O=C(NCCCCN1CCO[C@@H]2c3ccccc3OC[C@H]21)c1cccc(Cl)c1 (racemic),28
9,O=C(NCCCCN1CCO[C@@H]2c3ccccc3OC[C@H]21)c1cccc2ccccc12 (racemic),36
10,COc1ccc2c(c1)[C@H]1OCCN(CCCCNC(=O)c3cccs3)[C@@H]1CO2 (racemic),122
11,O=C(NCCCCN1CCO[C@@H]2c3ccccc3OC[C@H]21)c1ccc(Br)cc1 (racemic),66
12,COc1ccc2c(c1)[C@H]1OCCN(CCCCNC(=O)c3cccc(Cl)c3)[C@@H]1CO2 (racemic),30
13,COc1cc(C(=O)NCCCCN2CCO[C@@H]3c4ccccc4OC[C@H]32)cc(OC)c1OC (racemic),104
14,COc1ccc2c(c1)[C@H]1OCCN(CCCCNC(=O)c3ccc([N+](=O)[O-])cc3)[C@@H]1CO2 (racemic),42
15,COc1ccc2c(c1)[C@H]1OCCN(CCCCNC(=O)c3cccnc3)[C@@H]1CO2 (racemic),81

# Target: D(2) dopamine receptor (Homo sapiens, UniProt P14416)
# Assay: Displacement of [3H]spiperone from human D2 receptor transfected in HEK293 cell membrane measured after 50 mins by competitive radioligand binding analysis
# Type: cell membranes
# Conditions: not given
# Chain of D(2) dopamine receptor (P14416 whole entry): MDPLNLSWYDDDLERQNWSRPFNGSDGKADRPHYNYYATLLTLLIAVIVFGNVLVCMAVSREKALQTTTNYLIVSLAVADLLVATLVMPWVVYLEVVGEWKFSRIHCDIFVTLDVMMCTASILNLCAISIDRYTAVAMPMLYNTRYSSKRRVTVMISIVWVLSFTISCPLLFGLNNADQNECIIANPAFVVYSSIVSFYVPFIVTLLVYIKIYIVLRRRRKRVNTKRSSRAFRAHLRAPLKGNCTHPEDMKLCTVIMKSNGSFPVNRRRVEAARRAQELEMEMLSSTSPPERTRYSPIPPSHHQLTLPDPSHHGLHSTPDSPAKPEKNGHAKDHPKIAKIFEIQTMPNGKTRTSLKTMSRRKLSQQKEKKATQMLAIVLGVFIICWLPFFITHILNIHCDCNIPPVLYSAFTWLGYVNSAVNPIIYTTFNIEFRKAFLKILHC
row,SMILES,Ki
1,COc1ccc2c(c1)[C@H]1OCCN(CCCCNC(=O)c3cccc4ccccc34)[C@@H]1CO2 (racemic),0.861 µM
2,COc1ccc2c(c1)[C@H]1OCCN(CCCCNC(=O)c3cc4ccccc4[nH]3)[C@@H]1CO2 (racemic),0.732 µM
3,O=C(NCCCCN1CCO[C@@H]2c3ccccc3OC[C@H]21)c1cc2ccccc2[nH]1 (racemic),0.785 µM
4,COc1ccc(C(=O)NCCCCN2CCO[C@@H]3c4cc(OC)ccc4OC[C@H]32)cc1 (racemic),0.697 µM
5,O=C(NCCCCN1CCO[C@@H]2c3ccccc3OC[C@H]21)C1CCCCC1 (racemic),0.728 µM
6,CCCN1CCO[C@@H]2c3cc(O)ccc3OC[C@H]21,0.043 µM
7,COc1ccc2c(c1)[C@H]1OCCN(CCCCNC(=O)c3ccc4ccccc4c3)[C@@H]1CO2 (racemic),0.642 µM
8,O=C(NCCCCN1CCO[C@@H]2c3ccccc3OC[C@H]21)c1cccc(Cl)c1 (racemic),0.663 µM
9,O=C(NCCCCN1CCO[C@@H]2c3ccccc3OC[C@H]21)c1cccc2ccccc12 (racemic),0.563 µM
10,COc1ccc2c(c1)[C@H]1OCCN(CCCCNC(=O)c3cccs3)[C@@H]1CO2 (racemic),0.803 µM
11,O=C(NCCCCN1CCO[C@@H]2c3ccccc3OC[C@H]21)c1ccc(Br)cc1 (racemic),0.897 µM
12,COc1ccc2c(c1)[C@H]1OCCN(CCCCNC(=O)c3cccc(Cl)c3)[C@@H]1CO2 (racemic),0.785 µM
13,COc1cc(C(=O)NCCCCN2CCO[C@@H]3c4ccccc4OC[C@H]32)cc(OC)c1OC (racemic),0.708 µM
14,COc1ccc2c(c1)[C@H]1OCCN(CCCCNC(=O)c3ccc([N+](=O)[O-])cc3)[C@@H]1CO2 (racemic),0.589 µM
15,COc1ccc2c(c1)[C@H]1OCCN(CCCCNC(=O)c3cccnc3)[C@@H]1CO2 (racemic),0.744 µM

# Test system: Mus musculus
# Assay: Anti-addiction activity in naloxone-induced withdrawal symptoms in morphine-dependent mouse model assessed as inhibition of naloxone-induced body weight loss at 50 mg/kg, ip administered 60 mins prior to naloxone injection and measured after 2 hrs of naloxone injection
# Type: functional, organism-based
# Conditions: time 3.0 hrs
row,SMILES,Activity
1,COc1ccc2c(c1)[C@H]1OCCN(CCCCNC(=O)c3cccc4ccccc34)[C@@H]1CO2 (racemic),Active
2,COc1ccc2c(c1)[C@H]1OCCN(CCCCNC(=O)c3cc4ccccc4[nH]3)[C@@H]1CO2 (racemic),Active
3,O=C(NCCCCN1CCO[C@@H]2c3ccccc3OC[C@@H]21)c1ccc(-c2ccccc2)cc1 (racemic),inactive
4,O=C(NCCCCN1CCO[C@@H]2c3ccccc3OC[C@H]21)c1cc2ccccc2[nH]1 (racemic),Active
5,COc1ccc(C(=O)NCCCCN2CCO[C@@H]3c4cc(OC)ccc4OC[C@H]32)cc1 (racemic),Active
6,O=C(NCCCCN1CCO[C@@H]2c3ccccc3OC[C@H]21)C1CCCCC1 (racemic),Active
7,COc1ccc2c(c1)[C@H]1OCCN(CCCCNC(=O)c3ccc4ccccc4c3)[C@@H]1CO2 (racemic),Active
8,O=C(NCCCCN1CCO[C@@H]2c3ccccc3OC[C@H]21)c1cccc(Cl)c1 (racemic),Active
9,O=C(NCCCCN1CCO[C@@H]2c3ccccc3OC[C@H]21)c1cccc2ccccc12 (racemic),Active
10,O=C(NCCCCN1CCO[C@@H]2c3ccccc3OC[C@H]21)c1ccc(Br)cc1 (racemic),inactive
11,COc1ccc2c(c1)[C@H]1OCCN(CCCCNC(=O)c3cccc(Cl)c3)[C@@H]1CO2 (racemic),inactive
12,COc1cc(C(=O)NCCCCN2CCO[C@@H]3c4ccccc4OC[C@H]32)cc(OC)c1OC (racemic),inactive
13,COc1ccc2c(c1)[C@H]1OCCN(CCCCNC(=O)c3ccc([N+](=O)[O-])cc3)[C@@H]1CO2 (racemic),Active
14,O=C(NCCCCN1CCO[C@@H]2c3ccccc3OC[C@@H]21)c1ccc(Cl)cc1 (racemic),Active

# Test system: Mus musculus
# Assay: Anti-addiction activity in naloxone-induced withdrawal symptoms in morphine-dependent mouse model assessed as reduction in amount of diarrhea at 50 mg/kg, ip administered 60 mins prior to naloxone injection and measured for 30 mins after naloxone injection
# Type: functional, organism-based
# Conditions: time 90.0 min
row,SMILES,Activity
1,COc1ccc2c(c1)[C@H]1OCCN(CCCCNC(=O)c3cccc4ccccc34)[C@@H]1CO2 (racemic),Active
2,COc1ccc2c(c1)[C@H]1OCCN(CCCCNC(=O)c3cc4ccccc4[nH]3)[C@@H]1CO2 (racemic),Active
3,COc1ccc(C(=O)NCCCCN2CCO[C@@H]3c4cc(OC)ccc4OC[C@H]32)cc1 (racemic),Active

# Test system: not listed separately
# Assay: Toxicity in naloxone-induced withdrawal symptoms in morphine-dependent mouse model assessed as slow crawling at 50 mg/kg, ip administered 60 mins prior to naloxone injection
# Type: organism-based
# Conditions: in vivo, 1 h
row,SMILES,Activity
1,COc1ccc2c(c1)[C@H]1OCCN(CCCCNC(=O)c3cccs3)[C@@H]1CO2 (racemic),Toxic
2,COc1ccc2c(c1)[C@H]1OCCN(CCCCNC(=O)c3cccnc3)[C@@H]1CO2 (racemic),Toxic

# Test system: Mus musculus
# Assay: Anti-addiction activity in naloxone-induced withdrawal symptoms in morphine-dependent mouse model assessed as inhibition of naloxone-induced jumping response at 50 mg/kg, ip administered 60 mins prior to naloxone injection and measured for 30 mins after naloxone injection
# Type: functional, organism-based
# Conditions: time 90.0 min
row,SMILES,Activity
1,O=C(NCCCCN1CCO[C@@H]2c3ccccc3OC[C@H]21)c1cc2ccccc2[nH]1 (racemic),Active
2,COc1ccc(C(=O)NCCCCN2CCO[C@@H]3c4cc(OC)ccc4OC[C@H]32)cc1 (racemic),Active
3,O=C(NCCCCN1CCO[C@@H]2c3ccccc3OC[C@H]21)C1CCCCC1 (racemic),Active
4,O=C(NCCCCN1CCO[C@@H]2c3ccccc3OC[C@H]21)c1cccc2ccccc12 (racemic),Active
5,COc1ccc2c(c1)[C@H]1OCCN(CCCCNC(=O)c3cccc(Cl)c3)[C@@H]1CO2 (racemic),Active
6,COc1ccc2c(c1)[C@H]1OCCN(CCCCNC(=O)c3ccc([N+](=O)[O-])cc3)[C@@H]1CO2 (racemic),Active

# Test system: not listed separately
# Assay: Toxicity in naloxone-induced withdrawal symptoms in morphine-dependent mouse model assessed as convulsions at 50 mg/kg, ip administered 60 mins prior to naloxone injection
# Type: organism-based
# Conditions: in vivo, 1 h
row,SMILES,Activity
1,COc1ccc2c(c1)[C@H]1OCCN(CCCCNC(=O)c3cccs3)[C@@H]1CO2 (racemic),Toxic
2,COc1ccc2c(c1)[C@H]1OCCN(CCCCNC(=O)c3cccnc3)[C@@H]1CO2 (racemic),Toxic

# Test system: not listed separately
# Assay: Toxicity in naloxone-induced withdrawal symptoms in morphine-dependent mouse model assessed as inability to bounce at 50 mg/kg, ip administered 60 mins prior to naloxone injection
# Type: organism-based
# Conditions: in vivo, 1 h
row,SMILES,Activity
1,COc1ccc2c(c1)[C@H]1OCCN(CCCCNC(=O)c3cccs3)[C@@H]1CO2 (racemic),Toxic
2,COc1ccc2c(c1)[C@H]1OCCN(CCCCNC(=O)c3cccnc3)[C@@H]1CO2 (racemic),Toxic
